The record followed here is PMC7486443, “Generation of Phenothiazine with Potent Anti-TLK1 Activity for Prostate Cancer Therapy” (iScience, 2020).

The structures appear in SMILES notation.

Experiment in all cases: biochemical
Parameters in all cases: DiscoverX KINOMEscan scanMAX competition binding panel, single concentration, percent of control; remaining binding: dose or concentration left out as unconfirmed
Common to all, as to details: KINOMEscan binding, percent of control; read-out: Table S4_SCANMAX REPORT - related to Fig. 1 / Percent Control

The target in assay [1] is CAMKK1 (Homo sapiens, UniProt Q8N5S9).
In assay [2] the target is CASK (Homo sapiens, UniProt O14936).
Assay [3] deals with T1, DCAMKL3 (Homo sapiens, UniProt Q9C098).
T1 construct: gene DCLK3

In assay [4] the target is FGFR1 (Homo sapiens, UniProt P11362).
Assay [5] addresses LATS2 (Homo sapiens, UniProt Q9NRM7).
Assay [6] has as its target T2, MEK1 (Homo sapiens, UniProt Q02750).
T2 construct: gene MAP2K1

Assay [7] concerns the target MKNK2 (Homo sapiens, UniProt Q9HBH9).
Assay [8] has as its target NEK1 (Homo sapiens, UniProt Q96PY6).
Assay [9] deals with T3, NIK (Homo sapiens, UniProt Q99558).
T3 construct: gene MAP3K14

Assay [10] concerns the target PAK6 (Homo sapiens, UniProt Q9NQU5).
Assay [11] deals with T4, PIK4CB (Homo sapiens, UniProt Q9UBF8).
T4 construct: gene PI4KB

For assay [12], the target named is PIM3 (Homo sapiens, UniProt Q86V86).
Assay [13] has as its target T5, PKAC-beta (Homo sapiens, UniProt P22694).
T5 construct: gene PRKACB

Assay [14] deals with PKN2 (Homo sapiens, UniProt Q16513).
Assay [15] addresses PLK2 (Homo sapiens, UniProt Q9NYY3).
The target of assay [16] is RIPK4 (Homo sapiens, UniProt P57078).
The target in assay [17] is SGK2 (Homo sapiens, UniProt Q9HBY8).
Assay [18] addresses T6, SNARK (Homo sapiens, UniProt Q9H093).
T6 construct: gene NUAK2

Assay [19] concerns the target T7, SgK110 (Homo sapiens, UniProt P0C264).
T7 construct: gene SBK3

Sequence of PLK2 (Q9NYY3 whole entry): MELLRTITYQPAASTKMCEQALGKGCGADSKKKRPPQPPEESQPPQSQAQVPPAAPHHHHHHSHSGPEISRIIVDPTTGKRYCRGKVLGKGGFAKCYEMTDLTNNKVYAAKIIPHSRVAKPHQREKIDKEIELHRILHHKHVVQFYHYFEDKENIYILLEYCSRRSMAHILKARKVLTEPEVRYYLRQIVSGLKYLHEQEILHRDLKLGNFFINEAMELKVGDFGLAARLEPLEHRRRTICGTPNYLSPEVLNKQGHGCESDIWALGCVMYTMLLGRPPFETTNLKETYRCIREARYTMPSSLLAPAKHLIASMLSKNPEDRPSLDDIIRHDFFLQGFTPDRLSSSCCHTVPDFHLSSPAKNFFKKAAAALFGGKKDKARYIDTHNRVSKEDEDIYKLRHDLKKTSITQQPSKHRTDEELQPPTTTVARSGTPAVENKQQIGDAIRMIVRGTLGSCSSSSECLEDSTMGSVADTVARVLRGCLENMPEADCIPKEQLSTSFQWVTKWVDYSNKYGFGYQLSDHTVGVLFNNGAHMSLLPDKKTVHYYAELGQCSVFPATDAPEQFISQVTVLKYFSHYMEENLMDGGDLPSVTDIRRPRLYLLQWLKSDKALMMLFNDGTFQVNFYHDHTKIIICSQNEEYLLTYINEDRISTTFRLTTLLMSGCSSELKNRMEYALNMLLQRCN
T1 sequence (Q9C098 whole entry): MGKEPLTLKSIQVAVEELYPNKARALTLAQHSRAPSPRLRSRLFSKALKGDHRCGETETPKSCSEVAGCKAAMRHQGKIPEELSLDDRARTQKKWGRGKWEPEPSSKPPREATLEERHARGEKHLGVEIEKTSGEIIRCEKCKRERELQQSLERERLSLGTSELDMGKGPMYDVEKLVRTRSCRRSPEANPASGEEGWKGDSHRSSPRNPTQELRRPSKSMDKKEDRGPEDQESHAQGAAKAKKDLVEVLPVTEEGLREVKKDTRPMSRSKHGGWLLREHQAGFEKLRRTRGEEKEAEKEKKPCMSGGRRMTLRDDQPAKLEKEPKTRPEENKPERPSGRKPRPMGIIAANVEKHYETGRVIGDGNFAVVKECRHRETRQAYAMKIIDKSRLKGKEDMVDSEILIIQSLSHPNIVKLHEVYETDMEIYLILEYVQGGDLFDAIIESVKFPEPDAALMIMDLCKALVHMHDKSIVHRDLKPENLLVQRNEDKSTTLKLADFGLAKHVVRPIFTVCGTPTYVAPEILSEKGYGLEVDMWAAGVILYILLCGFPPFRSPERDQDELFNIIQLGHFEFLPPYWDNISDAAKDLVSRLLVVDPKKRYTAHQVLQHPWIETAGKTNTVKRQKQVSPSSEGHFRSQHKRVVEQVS
Sequence of PKN2 (Q16513 whole entry): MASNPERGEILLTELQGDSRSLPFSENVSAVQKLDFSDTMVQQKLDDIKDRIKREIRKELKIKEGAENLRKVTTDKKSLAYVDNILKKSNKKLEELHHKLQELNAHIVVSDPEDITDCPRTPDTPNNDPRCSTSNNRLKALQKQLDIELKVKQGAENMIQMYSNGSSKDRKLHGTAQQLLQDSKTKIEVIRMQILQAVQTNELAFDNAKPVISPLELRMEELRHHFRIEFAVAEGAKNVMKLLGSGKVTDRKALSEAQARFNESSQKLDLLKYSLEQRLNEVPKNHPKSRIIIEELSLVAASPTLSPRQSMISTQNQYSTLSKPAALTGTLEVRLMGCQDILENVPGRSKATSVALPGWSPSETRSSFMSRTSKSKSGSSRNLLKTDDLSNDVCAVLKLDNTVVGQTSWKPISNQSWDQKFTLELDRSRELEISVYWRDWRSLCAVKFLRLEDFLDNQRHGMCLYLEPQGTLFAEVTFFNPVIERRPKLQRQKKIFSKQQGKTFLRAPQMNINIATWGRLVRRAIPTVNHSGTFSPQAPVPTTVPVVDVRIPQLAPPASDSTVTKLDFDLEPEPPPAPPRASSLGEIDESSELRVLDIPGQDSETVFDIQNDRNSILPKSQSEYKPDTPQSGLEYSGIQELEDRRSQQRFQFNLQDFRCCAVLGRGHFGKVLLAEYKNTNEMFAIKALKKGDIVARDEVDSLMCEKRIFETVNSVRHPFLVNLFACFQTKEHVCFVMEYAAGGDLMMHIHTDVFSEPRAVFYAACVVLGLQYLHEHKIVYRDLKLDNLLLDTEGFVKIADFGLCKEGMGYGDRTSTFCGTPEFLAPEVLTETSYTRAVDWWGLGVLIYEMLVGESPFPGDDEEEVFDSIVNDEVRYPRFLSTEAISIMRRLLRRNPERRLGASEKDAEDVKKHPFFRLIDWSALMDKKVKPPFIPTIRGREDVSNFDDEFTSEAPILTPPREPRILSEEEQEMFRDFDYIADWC
Sequence of SGK2 (Q9HBY8 whole entry): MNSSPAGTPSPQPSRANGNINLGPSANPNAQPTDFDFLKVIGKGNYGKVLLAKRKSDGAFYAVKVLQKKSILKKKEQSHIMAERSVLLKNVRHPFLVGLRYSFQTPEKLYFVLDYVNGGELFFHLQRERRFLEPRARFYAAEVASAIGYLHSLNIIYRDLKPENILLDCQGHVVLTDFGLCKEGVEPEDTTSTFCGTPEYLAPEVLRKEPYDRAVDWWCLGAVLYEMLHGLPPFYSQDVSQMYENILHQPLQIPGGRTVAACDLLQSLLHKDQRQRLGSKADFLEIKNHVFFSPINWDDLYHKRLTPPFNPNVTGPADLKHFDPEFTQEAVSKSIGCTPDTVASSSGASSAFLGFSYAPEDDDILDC
Sequence of RIPK4 (P57078 whole entry): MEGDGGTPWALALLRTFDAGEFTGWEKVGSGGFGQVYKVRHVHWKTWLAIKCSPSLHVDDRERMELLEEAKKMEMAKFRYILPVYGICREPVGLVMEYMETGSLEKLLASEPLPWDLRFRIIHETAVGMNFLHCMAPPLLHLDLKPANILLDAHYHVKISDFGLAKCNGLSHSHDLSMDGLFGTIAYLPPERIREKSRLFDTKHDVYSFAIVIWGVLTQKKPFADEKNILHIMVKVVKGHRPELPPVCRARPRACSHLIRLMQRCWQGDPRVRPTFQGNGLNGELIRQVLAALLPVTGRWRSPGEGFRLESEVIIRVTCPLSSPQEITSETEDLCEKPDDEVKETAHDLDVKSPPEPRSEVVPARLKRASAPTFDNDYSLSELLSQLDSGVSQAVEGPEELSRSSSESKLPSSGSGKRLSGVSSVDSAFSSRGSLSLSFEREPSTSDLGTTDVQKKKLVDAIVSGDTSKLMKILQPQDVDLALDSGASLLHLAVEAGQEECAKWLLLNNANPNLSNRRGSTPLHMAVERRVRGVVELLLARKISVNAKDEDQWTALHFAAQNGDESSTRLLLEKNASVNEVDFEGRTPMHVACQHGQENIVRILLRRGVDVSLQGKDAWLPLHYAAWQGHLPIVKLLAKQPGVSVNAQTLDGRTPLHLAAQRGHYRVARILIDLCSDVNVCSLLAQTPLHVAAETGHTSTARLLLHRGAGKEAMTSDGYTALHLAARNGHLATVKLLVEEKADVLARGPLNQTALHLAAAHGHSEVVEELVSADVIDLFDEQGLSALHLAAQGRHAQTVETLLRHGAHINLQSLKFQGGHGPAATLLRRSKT
Sequence of CASK (O14936 whole entry): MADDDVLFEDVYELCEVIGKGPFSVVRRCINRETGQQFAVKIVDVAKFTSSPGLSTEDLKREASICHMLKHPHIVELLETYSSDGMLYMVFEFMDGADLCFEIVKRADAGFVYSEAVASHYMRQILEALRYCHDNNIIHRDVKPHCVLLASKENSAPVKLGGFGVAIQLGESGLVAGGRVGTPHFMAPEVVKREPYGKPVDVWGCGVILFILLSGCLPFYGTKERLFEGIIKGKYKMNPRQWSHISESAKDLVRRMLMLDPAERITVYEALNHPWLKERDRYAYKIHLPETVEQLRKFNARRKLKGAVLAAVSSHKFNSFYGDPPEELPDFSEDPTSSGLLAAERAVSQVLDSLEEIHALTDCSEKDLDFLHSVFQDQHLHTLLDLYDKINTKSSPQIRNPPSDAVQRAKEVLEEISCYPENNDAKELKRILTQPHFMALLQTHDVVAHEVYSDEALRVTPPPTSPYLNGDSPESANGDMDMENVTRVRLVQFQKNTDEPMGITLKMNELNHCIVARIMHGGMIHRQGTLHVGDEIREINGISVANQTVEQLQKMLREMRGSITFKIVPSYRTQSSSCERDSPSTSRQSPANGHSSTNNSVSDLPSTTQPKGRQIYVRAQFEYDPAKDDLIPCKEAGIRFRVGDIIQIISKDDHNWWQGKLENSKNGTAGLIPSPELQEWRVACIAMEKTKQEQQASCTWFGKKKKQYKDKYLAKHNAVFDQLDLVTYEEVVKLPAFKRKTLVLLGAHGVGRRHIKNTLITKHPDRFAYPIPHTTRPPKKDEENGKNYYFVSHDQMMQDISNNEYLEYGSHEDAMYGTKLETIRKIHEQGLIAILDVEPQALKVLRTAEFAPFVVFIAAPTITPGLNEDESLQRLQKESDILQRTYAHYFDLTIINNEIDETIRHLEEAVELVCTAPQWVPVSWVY

Turning to `c1ccc2c(c1)Sc1ccccc1N2CCN1CCOCC1` [J54], the remaining binding in [1] was determined as 100%; in assay [2], 100%; in assay [3] it was 95%; in assay [4] it was 94%; in [5] it was 90%; in [6] it was 100%. The remaining binding in [7] was 90%; in assay [8], 95%; in [9] it was 100%; in assay [10], 100%; in assay [11], 100%; in assay [12] it was 47%. For the same compound, the remaining binding in assay [13] amounted to 86%; in assay [14], 69%; in assay [15] it was 100%; in assay [16], 100%; in assay [17] it was 90%; in assay [18] it was 99%. Further, the remaining binding in assay [19] worked out at 100%.
